We go through one molecule from patent US4889871A, “Alkoxy-substituted dihydrobenzopyran-2-carboxylate derivatives” (G. D. Searle & Co., priority 1988, dated 1989).

The structures appear in SMILES notation. Read-outs that look alike come from different tables or passages of the source.

Usually IC50 stands for the point on the concentration scale where inhibition reaches its midpoint. A higher IC50 goes with weaker potency.

The target of one experiment is T1, guinea pig ileum (Cavia porcellus, UniProt Q2NNR5).
T1 construct: from tissue; host or cells: guinea pig ileum segments
T1 sequence (Q2NNR5 1-340): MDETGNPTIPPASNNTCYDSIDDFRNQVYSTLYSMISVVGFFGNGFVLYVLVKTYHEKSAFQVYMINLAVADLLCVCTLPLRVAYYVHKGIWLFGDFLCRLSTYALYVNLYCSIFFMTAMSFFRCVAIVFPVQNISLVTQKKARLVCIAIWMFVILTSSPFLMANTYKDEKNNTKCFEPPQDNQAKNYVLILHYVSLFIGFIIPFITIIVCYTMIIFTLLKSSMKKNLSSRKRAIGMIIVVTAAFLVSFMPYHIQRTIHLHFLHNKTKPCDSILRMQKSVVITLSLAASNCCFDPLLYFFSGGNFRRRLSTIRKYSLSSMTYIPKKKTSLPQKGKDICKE
As to the kind of experiment: LTD4 antagonism in guinea pig ileum (contraction). The method, then: Fresh segments of guinea pig ileum were suspended in 2 ml. tissue baths containing oxygenated modified Tyrodes solution. […] The ileum segments were washed and rested between exposures to agonist. Following this, the tissues were incubated with a single concentration of test compound and the agonist dose-response procedure was repeated. The dose ration is a measure of the antagonist's ability to shift the agonist dose-response curve to the right. It is derived as the concentration of agonist necessary to reach a given response level in the present (A') versus the absence (A) of antagonist. For example, if the test concentration of compound had no effect on the agonist-induced response (A'=A) the dose-ratio would approximate 1. […] One dose-ratio value is determined for each strip of ileum used to test antagonist. […] Schild analysis examines the linearity of the function described by the dose-ratios written as log (A'/A) versus antagonist concentration. If linearity is confirmed and the slope approximates -1, inhibition is considered to be competitive. […] This value is considered to be a measure of the affinity of the competitive antagonist.

Another experiment addresses T2, LTD4 receptor (Cavia porcellus, UniProt Q2NNR5).
T2 construct: from tissue; host or cells: lung membranes of male Hartley guinea pigs
T2 sequence (Q2NNR5 1-340): T1 sequence (Q2NNR5 1-340)
As to the kind of experiment: LTD4 receptor binding assay using guinea pig lung membrane preparations. The method, then:
MEMBRANE PREPARATIONS: For each membrane preparation, 10-11 male Hartley guinea pigs, weighing less than 350 gm, were sacrificed by guillotine. The lungs were rapidly removed and placed in ice-cold 50 mM Trisma 7.0 buffer. After all the lungs were collected, each was probed free of bronchial tissue to at least the level of tertiary branching as observed through a dissecting lamp. The tissue was minced with a razor blade on a damp paper towel and placed into fresh ice-cold Trisma 7.0 buffer. When all the tissues had been processed, they were pooled, drained and weighed. Nine volumes of cold buffer were added and the tissue was polytroned for 6-10 second bursts with a 1 minute cool down period in an ice bath between each burst. The homogenate was filtered through a gauze pad and centrifuged at 1085× g for 15 minutes at 4° C. Supernatants were saved and centrifuged at 40,000× g for 20 minutes at 4° C. This time, supernatants were discarded and the pellets were resuspended in 30-35 ml fresh Trisma 7.0 buffer by 1-10 second bursts with the polytron. The materials were centrifuged again at 40,000× g. Supernatants were again discarded. Each pellet was resuspended again with approximately 7 ml buffer. All this material was pooled into a 100 ml polypropylene container and stirred with a magnetic stirring bar. The tubes were rinsed with small amounts of buffer and the rinse was added to the membrane preparation. The homogenized membranes were aliquoted into 1.5 ml microfuge tubes and frozen at -70° C. Three aliquots were submitted for protein determinations by FPB (fluorescamine protein binding) assay.
Unless otherwise indicated, all binding experiments were performed in a final incubation volume of 250 μl. […] Both materials were received in solutions. […] Both solutions were brought to appropriate assay concentrations by dilution in assay buffer consisting of 50 mM Trisma 7.4 with 5 mM L-cysteine and 20 mM CaCl2. Membranes were also diluted with this assay buffer. […] Diluent was added to all other appropriate control tubes. Incubations were conducted for 30 minutes at 25° C. in a shaking water bath. Termination of the reaction was achieved by pouring the incubate over 2.5 cm Whatman GF/C filters soaked in assay buffer and set over the ports of Millipore filter vacuum manifolds. Filters were rinsed with 4 ml ice cold assay buffer 3 times. The filters were removed, placed in 10 ml Aquasol scintillation cocktail and allowed to cool in the dark for 2 hours prior to counting. All samples were corrected for background and isotope decay before converting DPM determination to mass.
These values were logit-transformed and linear regression was performed on the dose-response data. All dose-response sets used to calculate IC50 values contained data from 3-6 compound concentrations. […] IC50 values were calculated from the regression equation for the line.
male guinea pig lung homogenate which was aliquoted and stored at
-70° C. The particular preparation used to test the compounds of
Protein concentrations in these assays were adjusted
to provide aproximately 0.1 nM receptor in the presence of lnM ^3
HLTD4. Incubation was conducted for 30 min.
at 24° C. and filtration methods were used to separate bound from
tested were intially solubilized in DMSO. Each compound was evaluated at
dose of 10 μM (10^-5 M) in triplicate in 2 separate assays. The

For another experiment, the target named is T3, LTB4 receptor (Homo sapiens, UniProt Q15722).
T3 construct: Neutrophils were purified from venous blood of normal human donors; endogenous in cells; host or cells: purified human blood neutrophils (intact cells)
T3 sequence (Q15722 whole entry): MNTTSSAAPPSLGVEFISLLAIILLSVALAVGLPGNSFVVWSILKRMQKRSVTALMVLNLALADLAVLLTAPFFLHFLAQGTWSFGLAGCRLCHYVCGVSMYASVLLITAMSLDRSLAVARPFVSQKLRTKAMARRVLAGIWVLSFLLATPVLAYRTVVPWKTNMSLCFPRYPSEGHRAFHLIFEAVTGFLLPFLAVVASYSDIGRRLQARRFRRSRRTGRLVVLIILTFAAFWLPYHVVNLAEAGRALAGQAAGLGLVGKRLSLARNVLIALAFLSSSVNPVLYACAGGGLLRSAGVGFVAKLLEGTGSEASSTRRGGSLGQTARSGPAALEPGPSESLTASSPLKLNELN
Nature of the experiment: LTB4 receptor binding assay ((3H) LTB4, human neutrophils). The method, then:
Neutrophils (4-6×10^6) in 1 ml Hanks' balanced salt solution containing 10 mM HEPES buffer (HBSS), pH 7.4 and 30 μM nordihydroguaiaretic acid were incubated with 0.6×10^-9 M (^3 H) LTB4 in the presence or absence of test compounds. The incubation was carried out at 0° C. for 45 minutes and terminated by adding 5 ml of ice-cold HBSS followed by rapid filtration of incubation mixture under vacuum through GF/C glass fiber filters. The filters were further washed with 10 ml HBSS and radioactivity was determined. Specific binding was defined as the difference between total binding and nonspecific binding which was not displaced by 10^-7 M unlabeled LTB4. All data refer to specific binding.

The subject of another experiment is human neutrophils. Nature of the experiment: Modified Boyden chamber chemotaxis (LTB4, human neutrophils). The experiment is classed as cell-based. The settings on record: Neutrophil. The method, then: Human neutrophils were isolated from citrated peripheral blood using standard techniques of dextran sedimentation, followed by centrifugation on Histopaque® sterile solution (Sigma) or Ficoll-paque® (Pharmacia) and hypotonic lysis of erythrocytes. A final cell suspension of 3.4×10^6 neutrophils/ml of HEPES-buffered Hanks balanced salt solution (HBSS, pH 7.3) was added to the upper well (0.8 ml) of a modified Boyden chamber (blind well). The lower well (0.2 ml), separated by a polycarbonate membrane (Nuleopore Corp.), contained HBSS or 3×10^-8 M LTB4 in the presence of absence of test compound. Following a 90 minute incubation at 37° C. in 5% CO2 -95% air, cells from the lower well were lysed and nuclei counted in a Model S-Plus-IV Coulter Counter. Percent inhibition was calculated from cell counts corrected for random migration by subtracting the mean of the HBSS control.

The mark [1] stands for this setting: relative to Compound III where --OCH3 is replaced with --OH.

`CCCc1c(OCCCOc2ccc(C(C)=O)c(OC)c2CCC)ccc2c1OC(C(=O)O)CC2` (stereo not drawn) [Example 1, 7-[3-(4-acetyl-3-methoxy-2-propylphenoxy)propoxy]-3,4-dihydro-8-propyl-2H-1-benzopyran-2-carboxylic acid]: on guinea pig ileum (read-out: Guinea Pig Ileum Contraction pA2 (converted)), the Kb is no less than 0.316 µM. Moreover, at guinea pig ileum (setting [1]), the “less active as an LTD4 antagonist in the guinea pig ileum smooth muscle contraction test” value is “at least 10 ×”. Also, the “Receptor Binding LTD4 IC50” value at LTD4 receptor (Table 1, results are from Table 3, 10^-5 M) is “Inactive”. Moreover, the inhibition at 10 µM at LTD4 receptor (read-out: LTD4 Receptor Binding Activity) was less than 45%; at LTD4 receptor (read-out: LTD4 Receptor Binding Percent Inhibition, Test #1, triplicate, 30 min, 24° C.), 4.07%; at LTD4 receptor (read-out: LTD4 Receptor Binding Percent Inhibition, Test #2, triplicate, 30 min, 24° C.), 16.4%. At LTB4 receptor (0.75 h, read-out: LTB4 Receptor Binding (percent at stated concentration)), the inhibition at 0.3 µM is 50%. The “more potent than the --OH compound in LTB4 receptor binding” value at LTB4 receptor (setting [1]) is listed as “about 5 ×”. The molecule further returned an IC50 with human neutrophils of 3 µM.
